Experimental data: US10144715B2, “Piperazine derivatives as liver X receptor modulators” (priority 2014, dated 2018)
pEC50, pKi: −log10 of the molar value. Like-named read-outs stand apart in the source and are kept apart here.

Key:
LXR α LBD protein [1] = molecular target: T1, LXR α LBD protein (Homo sapiens (Human), UniProt Q13133); assay: LXR α radioligand binding assay (SPA, competition with [3H]TO901317); settings: read-out: LXRα Binding Ki
LXR β LBD protein [2] = molecular target: T2, LXR β LBD protein (Homo sapiens (Human), UniProt P55055); assay: biochemical; assay type: binding; settings: read-out: LXRβ Binding Ki
Target sequence in this assay (P55055 222-460 limits assumed): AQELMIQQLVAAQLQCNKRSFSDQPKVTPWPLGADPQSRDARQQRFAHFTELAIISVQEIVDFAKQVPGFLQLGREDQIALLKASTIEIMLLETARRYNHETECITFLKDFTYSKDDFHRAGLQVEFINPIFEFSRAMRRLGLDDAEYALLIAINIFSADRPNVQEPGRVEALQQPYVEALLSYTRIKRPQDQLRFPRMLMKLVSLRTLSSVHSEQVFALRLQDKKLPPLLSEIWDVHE

[3] = molecular target: Gal4 DNA binding domain fused to the LBD of LXRα in HEK293 cells (Homo sapiens (Human), UniProt Q13133); assay: LXR luciferase transcriptional reporter gene assay, agonist mode, LXRα; assay type: cell-based; settings: for pEC50: read-out: Cell LXRα EC50
[4] = molecular target: Gal4 DNA binding domain fused to the LBD of LXRβ in HEK293 cells (Homo sapiens (Human), UniProt P55055); assay: cell-based
LXR α LBD protein [5] = molecular target: T1, LXR α LBD protein; assay: Human LXRα coactivator recruitment FRET assay, agonist mode; assay type: biochemical
Method in brief: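 Time-resolved FRET (delay 100 µs, window 200 µs) after 2 h rt incubation of compound with 10 nM (2×) GST-tagged LXRα or LXRβ LBD plus 200 nM fluorescein-SRC2-3 and 20 nM Tb-anti-GST (4×). Percent control vs concentration fit to four-parameter model; EC50 at inflection.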

LXR β LBD protein [6] = molecular target: T2, LXR β LBD protein; assay: biochemical; assay type: biochemical
Experimental: Two μL of the DMSO solutions were transferred to the plate and 38 μL of 10 nM LXRα-LBD or LXRβ-LBD (2×) were added immediately to the wells. The plate was shaken for 5 min at rt on an orbital micro shaker (DPC MicroMix® 5), after which 40 μL of 200 nM fluorescein-SRC2-3 peptide and 20 nM Terbium-anti-GST-antibody (Cat# PV3550, Life Technologies, Grand Island, N.Y.) solution (4×) were added to all. The plate was sealed and shaken for 2 min at rt, and incubated at rt for 2 h without agitation. […] The delay and window times were set at 100 and 200 microseconds, respectively. […] The percent control vs. compound concentration data were fit into a four-parameter model, and EC50 values were calculated from the fit as the concentrations corresponding to the inflection points on the concentration-response curves.
Target sequence in this assay (P55055 222-460): as the sequence (P55055 222-460 limits assumed) above

[7] = Biological Test Example 2, agonist mode
[8] = Biological Test Example 3, agonist mode
[9] = agonist mode, read-out: Cell LXRβ EC50
[10] = agonist mode, read-out: FRET LXRβ EC50

Gal4 DNA binding domain fused to the LBD of LXRβ in HEK293 cells, sequence (P55055 222-460 limits assumed): as above
T1 sequence (Q13133 209-447): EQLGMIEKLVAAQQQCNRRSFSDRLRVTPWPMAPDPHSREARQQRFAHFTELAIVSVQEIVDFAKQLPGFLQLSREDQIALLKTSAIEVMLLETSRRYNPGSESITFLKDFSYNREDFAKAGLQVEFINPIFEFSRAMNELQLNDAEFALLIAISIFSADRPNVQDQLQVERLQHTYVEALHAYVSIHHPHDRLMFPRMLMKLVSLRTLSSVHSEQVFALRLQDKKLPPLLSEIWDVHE
Gal4 DNA binding domain fused to the LBD of LXRα in HEK293 cells, sequence (Q13133 209-447): as above

Compound	pKi (LXR β LBD protein [2])	Cell LXRα efficacy [3]	pEC50 [4]	Cell LXRβ efficacy ([4]; agonist mode)	pEC50 (LXR α LBD protein [5]; agonist mode)	pEC50 (LXR β LBD protein [6]; read-out: FRET LXRβ EC50)	pEC50 [3]	pEC50 [4, 9]	FRET LXRα efficacy (LXR α LBD protein [5]; agonist mode)	FRET LXRβ efficacy (LXR β LBD protein [6]; agonist mode)	pEC50 (LXR β LBD protein [6]; [10])	further results
CC(C)[C@@H]1CN(c2ccc(F)c(S(C)(=O)=O)c2)CCN1c1nc2ccc(C#N)cc2s1 [7-53, (R)-2-(4-(4-fluoro-3-(methylsulfonyl)phenyl)-2-isopropylpiperazin-1-yl)benzo[d]thiazole-6-carbonitrile]	7.57	795 (40) %	6.46	350 (26) %	< 4.30	–	–	–	–	–	–	pKi (LXR α LBD protein [1]): 6.26; pEC50 ([3]; agonist mode): 6.10
CS(=O)(=O)c1cccc(N2CCN(C[C@H]3CCN(CC(F)(F)F)C3)[C@H](c3ccccc3)C2)c1 (single isomer, unassigned) [48-60]	–	18622 (13) %	5.17	–	–	–	–	–	–	–	–	pEC50 [3, 7]: 4.73; Cell LXRβ efficacy [4, 7]: 6832 (7) %; pEC50 (LXR α LBD protein [5]; [8]): 4.79; FRET LXRα efficacy (LXR α LBD protein [5]; [8]): 27%; pEC50 (LXR β LBD protein [6]): 5.99; FRET LXRβ efficacy (LXR β LBD protein [6]; [8]): 1032 (33) %
C[C@@]1(c2ccccc2)CN(c2cccc(S(C)(=O)=O)c2)CCN1Cc1ccc(C(F)(F)F)c(Cl)c1 (single isomer, unassigned) [46-35]	–	–	< 4.70	–	< 4.30	< 4.30	–	–	–	–	–	pEC50 ([3]; agonist mode): < 4.70
Cc1ccc(CN2CCN(c3cccc(S(C)(=O)=O)c3)C[C@H]2c2ccccc2)cc1 (single isomer, unassigned) [46-5]	–	–	< 4.70	–	< 4.30	5.15	< 4.70	–	–	–	–	FRET LXRβ efficacy (LXR β LBD protein [6]): 7159 (57) %
COC(=O)c1cnc(N2CCN(c3ccc(F)c(S(C)(=O)=O)c3)C[C@H]2C(C)C)nc1C(F)(F)F [9-2, methyl (R)-2-(4-(4-fluoro-3-(methylsulfonyl)phenyl)-2-isopropylpiperazin-1-yl)-4-(trifluoromethyl)pyrimidine-5-carboxylate]	8.00	543 (54) %	7.07	–	–	8.05	–	–	–	–	–	pKi (LXR α LBD protein [1]): 7.02; pEC50 ([3]; agonist mode): 6.27; Cell LXRβ efficacy [4]: 86 (34) %; FRET LXRβ efficacy (LXR β LBD protein [6]): 9 (91) %
CS(=O)(=O)c1cccc(N2CCN(C[C@H]3CC[C@H](C(F)(F)F)CC3)[C@H](c3ccccc3)C2)c1 (single isomer, unassigned) [48-32]	–	19000 (4) %	–	15%	4.82	–	4.72	5.48	59%	97%	5.42	–
NS(=O)(=O)c1cccc(N2CCN(C[C@H]3CC[C@@H](C(F)(F)F)CC3)[C@H](c3ccccc3)C2)c1 (single isomer, unassigned) [48-34]	–	9858 (48) %	–	32%	5.64	–	5.01	5.42	25%	39%	6.15	–
NS(=O)(=O)c1cccc(N2CCN(C[C@H]3CC[C@H](C(F)(F)F)CC3)[C@H](c3ccccc3)C2)c1 (single isomer, unassigned) [48-36]	–	–	–	–	< 4.30	–	< 4.70	< 4.70	–	25%	4.79	–
CC(C)(O)c1ccc(CN2CCN(c3cccc(S(C)(=O)=O)c3)C[C@H]2c2ccccc2)cc1 [10-11, (R)-2-(4-((4-(3-(methylsulfonyl)phenyl)-2-phenylpiperazin-1-yl)methyl)phenyl)propan-2-ol]	–	–	< 4.70	–	< 4.30	< 4.30	< 4.70	–	–	–	–	–
CC(C)[C@H]1CC[C@H](CN2CCN(c3cccc(S(C)(=O)=O)c3)C[C@H]2c2ccccc2)CC1 (single isomer, unassigned) [48-14]	–	–	–	–	< 4.30	–	< 4.70	< 4.70	–	67%	4.91	–
CS(=O)(=O)c1cccc(N2CCN(Cc3ccc(C(F)(F)F)nc3)[C@H](c3ccccc3Cl)C2)c1 (single isomer, unassigned) [46-56]	–	–	< 4.70	–	4.57	5.65	< 4.70	–	47%	–	–	FRET LXRβ efficacy (LXR β LBD protein [6]): 2252 (40) %
CS(=O)(=O)c1cccc(N2CCN(Cc3ccc(C(F)(F)F)o3)[C@H](c3ccccc3)C2)c1 [46-65, (R)-4-(3-(methylsulfonyl)phenyl)-2-phenyl-1-((5-(trifluoromethyl)furan-2-yl)methyl)piperazine]	–	–	< 4.70	–	–	–	–	–	–	25%	5.24	–
CS(=O)(=O)c1cccc(N2CCN(Cc3ccc(OC(F)(F)F)cc3)[C@H](c3ccccc3)C2)c1 (single isomer, unassigned) [46-22]	–	–	5.68	–	5.34	5.90	< 4.70	–	42%	–	–	Cell LXRβ efficacy [4]: 2095 (9) %; FRET LXRβ efficacy (LXR β LBD protein [6]): 1273 (73) %
C[C@@]1(c2ccccc2)CN(c2cccc(S(C)(=O)=O)c2)CCN1Cc1ccc(C(F)(F)F)cc1 [46-20, (R)-2-methyl-4-(3-(methylsulfonyl)phenyl)-2-phenyl-1-(4-(trifluoromethyl)benzyl)piperazine]	–	–	< 4.70	–	< 4.30	< 4.30	–	–	–	–	–	pEC50 ([3]; agonist mode): < 4.70
tert-butyl 2-cyclohexyl-4-(3-(methylsulfonyl)phenyl)piperazine-1-carboxylate [1-11]	–	16278 (16) %	–	2%	4.72	–	4.79	4.80	27%	25%	6.47	–
CS(=O)(=O)c1cccc(N2CCN(C[C@H]3CC[C@@H](C(F)(F)F)CC3)[C@H](c3ccccc3)C2)c1 (single isomer, unassigned) [48-30]	–	4509 (17) %	–	28%	4.89	–	5.35	5.79	55%	–	–	pKi (LXR α LBD protein [1]): 5.59
NS(=O)(=O)c1cccc(N2CCN(C[C@H]3CC[C@H](C(F)(F)F)CC3)[C@@H](c3ccccc3)C2)c1 (single isomer, unassigned) [48-37]	–	2829 (39) %	–	19%	5.63	–	5.55	5.93	33%	30%	5.89	–
CS(=O)(=O)c1cccc(N2CCN(Cc3ccc(C(F)(F)F)o3)[C@@H](c3ccccc3)C2)c1 [46-66, (S)-4-(3-(methylsulfonyl)phenyl)-2-phenyl-1-((5-(trifluoromethyl)furan-2-yl)methyl)piperazine]	6.68	–	< 4.70	–	–	–	–	–	–	–	< 4.30	–
CS(=O)(=O)c1cccc(N2CCN(Cc3ccc(C(F)(F)F)cn3)[C@H](c3ccccc3)C2)c1 [46-63, (R)-4-(3-(methylsulfonyl)phenyl)-2-phenyl-1-((5-(trifluoromethyl)pyridin-2-yl)methyl)piperazine]	–	–	< 4.70	–	–	–	–	–	–	50%	5.15	–
CS(=O)(=O)c1cccc(N2CCN(Cc3ccc(C(F)(F)F)cn3)[C@@H](c3ccccc3)C2)c1 [46-64, (S)-4-(3-(methylsulfonyl)phenyl)-2-phenyl-1-((5-(trifluoromethyl)pyridin-2-yl)methyl)piperazine]	< 5.60	–	5.24	5804 (13) %	–	–	–	–	–	34%	5.73	–
CC(C)[C@@H]1CN(c2cccc(S(C)(=O)=O)c2)CCN1c1ncc(C2CC2)cn1 [Cpd No 7-5, (R)-5-cyclopropyl-2-(2-isopropyl-4-(3-(methylsulfonyl)phenyl)piperazin-1-yl)pyrimidine]	7.59	501 (64) %	7.03	–	6.50	–	6.30	–	60%	–	–	pKi (LXR α LBD protein [1]): 6.46; Cell LXRβ efficacy [4]: 93 (32) %
CC(C)[C@@H]1CN(c2cccc(S(N)(=O)=O)c2)CCN1c1nccc(C(F)(F)F)n1 [7-60, (R)-3-(3-isopropyl-4-(4-(trifluoromethyl)pyrimidin-2-yl)piperazin-1-yl)benzenesulfonamide]	6.84	248 (95) %	7.23	59 (75) %	7.08	–	–	–	97%	–	–	pKi (LXR α LBD protein [1]): 6.06; pEC50 ([3]; agonist mode): 6.61
CC(C)[C@@H]1CN(c2ccc(F)c(S(C)(=O)=O)c2)CCN1c1nccc(C2CC2)n1 [7-10, (R)-4-cyclopropyl-2-(4-(4-fluoro-3-(methylsulfonyl)phenyl)-2-isopropylpiperazin-1-yl)pyrimidine]	7.89	586 (42) %	7.02	–	6.53	–	6.23	–	55%	–	–	pKi (LXR α LBD protein [1]): 6.63; Cell LXRβ efficacy [4]: 95 (23) %
